Biological target: PCSK9 (Homo sapiens, UniProt Q8NBP7)
Experiment: BODIPY-LDL uptake assay in HepG2 cells
Type: cell-based
Conditions: 5 μg/ml PCSK9, BODIPY-LDL
Description: BODIPY-LDL Uptake Assay in HepG2 Cells.
An established assay for PCSK9 inhibition features uptake of fluorescently labeled LDL nanoparticles (BODIPY-LDL) by hepatocytes and uptake of the BODIPY-containing particles is maximized in the absence of PCSK9.
In the LDL uptake assay, HepG2 cells were seeded at a density of 6×10^4 cells/well in a 96-well plate. After 24 h, the test compounds at various concentrations were pre-incubated with 5 μg/ml PCSK9 in 0.2% DMSO for 60 min prior to the addition on to the cells. After 16 h the medium was removed and 1 μg/ml BODIPY-LDL (Invitrogen) in serum free media was added and incubated for 5 h. Then the cells were washed twice with 0.25% BSA in PBS. Then the fluorescence of the cells in PBS was measured using TECAN multimode reader (Excitation: 485 nm and Emission: 520 nm). The readings were taken in triplicate and the final values were normalized with the protein concentration from respective wells. The wells without test compound containing external PCSK9 is considered as zero uptake and the one without PCSK9 was considered as 100% uptake. The percentage increase in LDL uptake for the test compounds were calculated using these values.

PCSK9, sequence (Q8NBP7 153-692): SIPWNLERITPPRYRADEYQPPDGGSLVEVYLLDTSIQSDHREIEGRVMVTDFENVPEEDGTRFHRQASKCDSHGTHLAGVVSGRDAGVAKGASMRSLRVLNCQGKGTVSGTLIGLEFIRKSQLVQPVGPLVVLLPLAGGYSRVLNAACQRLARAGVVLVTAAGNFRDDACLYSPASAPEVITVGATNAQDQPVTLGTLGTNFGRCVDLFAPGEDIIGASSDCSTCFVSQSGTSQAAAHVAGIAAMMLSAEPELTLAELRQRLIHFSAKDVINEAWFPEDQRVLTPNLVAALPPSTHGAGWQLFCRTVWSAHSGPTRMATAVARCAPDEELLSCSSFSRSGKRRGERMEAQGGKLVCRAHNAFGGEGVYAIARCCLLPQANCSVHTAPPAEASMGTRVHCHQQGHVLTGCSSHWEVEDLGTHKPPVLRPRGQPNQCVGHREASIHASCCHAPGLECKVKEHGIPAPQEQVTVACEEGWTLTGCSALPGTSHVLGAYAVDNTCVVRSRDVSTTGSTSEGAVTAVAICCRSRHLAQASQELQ

SMILES | % increase in LDL Uptake (1 μM test compound) [%] | % increase in LDL Uptake (10 μM test compound) [%] | % increase in LDL Uptake (30 μM test compound) [%]
CC(C)COC1(c2ccc(C(=O)N3CCC(c4ccc(C(F)(F)F)cc4)CC3)cc2)COC1 [Example 45, (4-(3-isobutoxyoxetan-3-yl)phenyl)(4-(4-(trifluoromethyl)phenyl)piperidin-1-yl)methanone] | 19 | 9 | 4
O=C(c1ccc(C2(OCC3CC3)COC2)cc1)N1CCC(c2ccc(C(F)(F)F)cc2)CC1 [Example 46, (4-(3-(cyclopropylmethoxy)oxetan-3-yl)phenyl)(4-(4-(trifluoromethyl)phenyl)piperidin-1-yl)methanone] | 28 | 47 | 34
O=C(c1cccc(C2(O)COC2)c1)N1CCCC(c2ccc(C(F)(F)F)cc2)C1 (stereo not drawn) [Example 48, (3-(3-hydroxyoxetan-3-yl)phenyl)(3-(4-(trifluoromethyl)phenyl)piperidin-1-yl)methanone] | 0 | 142 | 234
O=C(c1cncc(C2(O)COC2)c1)N1CCC(c2ccc(C(F)(F)F)cc2)CC1 [Example 49, (5-(3-hydroxyoxetan-3-yl)pyridin-3-yl)(4-(4-(trifluoromethyl)phenyl)piperidin-1-yl)methanone] | 11 | 45 | 74
COC1(c2cccc(C(=O)N3CCCC(c4ccc(C(F)(F)F)cc4)C3)c2)COC1 (stereo not drawn) [Example 51, (3-(3-methoxyoxetan-3-yl)phenyl)(3-(4-(trifluoromethyl)phenyl)piperidin-1-yl)methanone] | 11 | 79 | 131
O=C(c1cccc(C2(O)COC2)c1)N1CC2CN(c3ccc(C(F)(F)F)cc3)CC2C1 (stereo not drawn) [Example 55, (3-(3-hydroxyoxetan-3-yl)phenyl)(5-(4-(trifluoromethyl)phenyl)hexahydropyrrolo[3,4-c]pyrrol-2(1H)-yl)methanone] | 82 | 320 | 287
[2H]C([2H])([2H])OC1(c2cccc(C(=O)N3CCC(c4ccc(C(F)F)cc4)CC3)c2)COC1 [Example 59, (4-(4-(difluoromethyl)phenyl)piperidin-1-yl)(3-(3-(methoxy-d3)oxetan-3-yl)phenyl) methanone] | 0 | 0 | 37
COC1(c2ccc(NC(=O)C3CCN(c4ccc(C(F)(F)F)cc4)CC3)cc2)COC1 [Example 60, N-(4-(3-methoxyoxetan-3-yl)phenyl)-1-(4-(trifluoromethyl)phenyl) piperidine-4-carboxamide] | 50 | 7 | 0
O=C(c1ccc(C2(O)CS(=O)(=O)C2)cc1)N1CC2CN(c3ccc(C(F)(F)F)cc3)CC2C1 (stereo not drawn) [Example 61, (4-(3-hydroxy-1,1-dioxidothietan-3-yl)phenyl)(5-(4-(trifluoromethyl)phenyl)hexahydropyrrolo[3,4-c]pyrrol-2(1H)-yl)methanone] | 13 | 32 | 37
O=C(c1ccc(C2(O)CS(=O)(=O)C2)cc1)N1CCC(c2ccc(C(F)(F)F)cc2)CC1 [Example 62, (4-(3-hydroxy-1,1-dioxidothietan-3-yl)phenyl)(4-(4-(trifluoromethyl)phenyl)piperidin-1-yl)methanone] | 18 | 10 | 17

Other lines, results leading:

% increase in LDL Uptake (1 μM test compound) [%] | % increase in LDL Uptake (10 μM test compound) [%] | % increase in LDL Uptake (30 μM test compound) [%] | SMILES
12 | 18 | 0 | O=C(c1ccc(C2(O)COC2)cc1)N1CCC(c2ccc(O)cc2)CC1 [Example 63, (4-(3-hydroxyoxetan-3-yl)phenyl)(4-(4-hydroxyphenyl)piperidin-1-yl)methanone]
0 | 13 | 6 | O=C(c1ccc(C2(O)COC2)cc1)N1CCC(c2ccccc2)CC1 [Example 64, (4-(3-hydroxyoxetan-3-yl)phenyl)(4-phenylpiperidin-1-yl) methanone]
0 | 9 | 66 | COC1(c2cccc(C(=O)N3CCC(c4ccc(C(F)F)cc4)CC3)c2)COC1 [Example 65, (4-(4-(difluoromethyl)phenyl)piperidin-1-yl)(3-(3-methoxyoxetan-3-yl)phenyl)methanone]
26 | 27 | 11 | COc1cc(C2CN(c3ccc(C(F)(F)F)cc3)CCN2C(=O)c2ccc(C3(O)COC3)cc2)ccn1 (stereo not drawn) [Example 67, (4-(3-hydroxyoxetan-3-yl)phenyl)(2-(2-methoxypyridin-4-yl)-4-(4-(trifluoromethyl)phenyl)piperazin-1-yl)methanone]
0 | 2 | 51 | COC1(c2ccc(C(=O)N3CCC(c4ccc(C(F)F)cc4)CC3)cc2)COC1 [Example 68, (4-(4-(difluoromethyl)phenyl)piperidin-1-yl)(4-(3-methoxyoxetan-3-yl)phenyl)methanone]
0 | 0 | 76 | O=C(c1ccc(C2(O)COC2)cc1)N1CCC(c2ccc(C(F)F)cc2)CC1 [Example 69, (4-(4-(difluoromethyl)phenyl)piperidin-1-yl)(4-(3-hydroxyoxetan-3-yl)phenyl)methanone]
0 | 26 | 14 | CC#CCOC1(c2ccc(C(=O)N3CCC(c4ccc(C(F)(F)F)cc4)CC3)cc2)COC1 [Example 70, (4-(3-(but-2-yn-1-yloxy)oxetan-3-yl)phenyl)(4-(4-(trifluoromethyl)phenyl)piperidin-1-yl)methanone]
0 | 8 | 0 | COC1(c2ccc(C3(O)CCN(c4ccc(C(F)(F)F)cc4)CC3)cc2)COC1 [Example 73, 4-(4-(3-methoxyoxetan-3-yl)phenyl)-1-(4-(trifluoromethyl)phenyl) piperidin-4-ol]
34 | 42 | 100 | COC1(c2ccc(NC(=O)N3CC4CN(c5ccc(C(F)(F)F)cc5)CC4C3)cc2)COC1 (stereo not drawn) [Example 74, N-(4-(3-methoxyoxetan-3-yl)phenyl)-5-(4-(trifluoromethyl)phenyl) hexahydropyrrolo[3,4-c]pyrrole-2(1H)-carboxamide]
20 | 38 | 27 | O=C(Nc1ccc(C2(O)COC2)cc1)N1CC2CN(c3ccc(C(F)(F)F)cc3)CC2C1 (stereo not drawn) [Example 75, N-(4-(3-hydroxyoxetan-3-yl)phenyl)-5-(4-(trifluoromethyl)phenyl) hexahydropyrrolo[3,4-c]pyrrole-2(1H)-carboxamide]
0 | 13 | 37 | O=C(O)c1cc(C2(O)COC2)ccc1N1CCC(c2ccc(C(F)(F)F)cc2)CC1 [Example 77, 5-(3-hydroxyoxetan-3-yl)-2-(4-(4-(trifluoromethyl)phenyl)piperidin-1-yl)benzoic acid]
